In data set [1] the test system is kainate receptors. The settings on record: cited from earlier work.
Data set [2] relates to excessive barking. The data set is described as follows: Excessive barking of a Pomeranian with separation anxiety during 30 minutes after every one left the room. It counts as in vivo, dog (Pomeranian). The method, then: The following experiment was performed by using an 11 years old Pomeranian (4.5 kg weight) in which a symptom of separation anxiety was confirmed.
The experimental animal was fed in a room which was equipped with an air conditioner keeping 22° C. and were provided with 200 g of canned dog food (Science Diet Maintenance, beef can, Japan Hills Colgate ) twice per day in the morning and in the evening. Water was freely provided. The animals had been habituated in the experimental cages before recording the frequency of excessive barking with a set up video camera. Excessive barking during 30 minutes after every one left the room was recorded for 2 days. The barking frequency on day 1 was 178 times and 203 times on day 2. […] The barking frequency for that recording was 0 (zero).

Data set [3] relates to excessive barking. Briefly: Excessive barking of beagles during 5 minutes before feeding after intravenous SKF97541. It counts as in vivo, dog (beagles). The settings on record: mean and standard error. The method, then: Two ovariectomized healthy female beagles (10 kg) of 2 years old were used for the following experiments.
(§1) The experiments was performed for seven (7) days as one cycle and the data were recorded, which were repeated for 3 months (12 cycles). The data were statistically processed. The experimental dogs were fed in a room which was equipped with an air conditioner keeping 22° C. During the first 6 days, the animals were fed with 400 g of food (Science Diet Maintenance, dry, Japan Hills Colgate) at 4 o'clock every day. Water was freely provided. The animals were habituated in the experimental cages. The seventh (7th) day in each cycle, the condition was kept except that the indicated amount of SKF97541 ([…] receptor agonist) was intravenously administrated at 2 o'clock P.M. The frequency of barking during 5 minutes before feeding was recorded every day by a video camera. The ratio of the frequency of barking on the day where the animals were received SKF97541 to the mean values of the barking frequency during the first 6 days where the animals were not received SKF97541 is indicated as percentages in Table 1 and FIG. 1.

Data set [4] can be described thus: General symptom of animals, beagle experiment. The settings on record: beagles, intravenous SKF97541. It counts as in vivo, dog (beagles). The procedure:
as §1

Here are results for 4 compounds from US20030018027A1 (priority 2001, published 2003).

On to `O=C1N=c2cc([N+](=O)[O-])c([N+](=O)[O-])cc2=NC1=O` [DNQX, 6,7-dinitroquinoxaline-2,3-dione], for which, in data set [1] (rat), the “inhibition of running activity induced by kainate” value is on record as “inhibited”.

Turning to `NCCCC(=O)O` [GABA, γ-aminobutyric acid], the “barking frequency during 30 minutes after every one left the room” value in data set [2] (150 mg powdered GABA mixed with canned dog food, oral, untreated days 178 and 203 times) amounted to 0.

For the compound `CP(=O)(O)CCCN` [SKF97541, 3-aminopropyl(methyl)phosphinic acid], the “(frequency of barking on the administrated day) / (frequency of barking on non-administrated days)” value in data set [3] (amount of administrated SKF97541 0.025 (unit not given)) is reported as 118.2 ± 0.0%; in data set [3] (amount of administrated SKF97541 0.05 (unit not given)) it was 90.2 ± 6.2%; in data set [3] (amount of administrated SKF97541 0.1 (unit not given)), 44.0 ± 1.1%; in data set [3] (amount of administrated SKF97541 0.2 (unit not given)), 8.8 ± 8.8%; in data set [3] (amount of administrated SKF97541 0.5 (unit not given)), 0%. In addition, the “barking frequency during 30 minutes after every one left the room” value in data set [2] (SKF97541 intravenous 0.05 mg/kg body weight) and in data set [2] (SKF97541 intravenous 0.1 mg/kg body weight) was “did not bark” each time. Besides, in data set [4], the “general symptom of animals” value is “no notable point regarding to the general symptom of animals was observed”.

As for `C=C(C)[C@H]1CN[C@H](C(=O)O)[C@H]1CC(=O)O` [kainate], in data set [1], the “induction of running activity in rat” value is given as “induced”.
